Experimental data reported in patent US20070043035A1, “Novel compounds and their use in medicine: process for their preparation and pharmaceutical compositions containing them” (priority 2003, published 2007).

What was measured:
[1] = tested on: cholesterol fed Syrian Hamsters; assay: Body weight reducing effect in cholesterol fed hamsters; format: in vivo, hamster; details: dose 3 mg/kg, oral, 15 days
Experimental: Male Syrian Hamsters are procured from NIN, Hyderabad, India. Animals are housed at DRF animal house under 12 hour light and dark cycle at 25±1° C. with free access to food and water. Animals are maintained with 1% cholesterol containing standard laboratory chow (NIN) from the day of treatment.
The test compounds can be administered orally at 1 to 30 mg/kg/day dose for 15 days. Control group animals are treated with vehicle (Mill Q water, dose 10 ml/kg/day). Body weights are measured on every 3rd day.
(§1) Formulae for Calculation: 1. Percent reduction in Blood sugar triglycerides/total cholesterol will be calculated according to the formula: [formula] OC=Zero day control group value OT=Zero day treated group value TC=Test day control group value TT=Test day treated group value 2. LDL and VLDL cholesterol levels will be calculated according to the formula: [formula] [formula]

Swiss albino mice = assay: Plasma triglyceride and total cholesterol lowering activity in Swiss albino mice; format: in vivo, mouse; details: dose 3 mg/kg, oral, 6 days
Experimental: Male Swiss albino mice (SAM) were obtained from NIN and housed in DRF animal house. All these animals are maintained under 12 hour light and dark cycle at 25±1° C. Animals are given standard laboratory chow (NIN, Hyderabad, India) and water, ad libitum. SAM of 20-25 g body weight range and Guinea pigs of 500-700 g body weight range are used (Oliver, P., Plancke, M. O., Marzin, D., Clavey, V., Sauzieres, J and Fruchart, J. C. Effects of fenofibrate, gemfibrozil and nicotinic acid on plasma lipoprotein levels in normal and hyperlipidemic mice. Atherosclerosis. 1988. 70: 107-114).
The test compounds can be administered orally to Swiss albino mice at 0.3 to 30 mg/kg/day dose for 6 days. Control mice are treated with vehicle (0.25% Carboxymethylcellulose; dose 10 ml/kg). The test compounds are administered orally to Guinea pigs at 0.3 to 30 mg/kg/day dose for 6 days. Control animals are treated with vehicle (0.25% Carboxymethylcellulose; dose 5 ml/kg).
The blood samples can be collected in fed state 1 hour after drug administration on 0 and 6 day of treatment. […]
(§2) Formulae for Calculation: 1. Percent reduction in Blood sugar triglycerides/total cholesterol will be calculated according to the formula: [formula] […] LDL and VLDL cholesterol levels will be calculated according to the formula: [formula] […]

hPPARα = target: T1, hPPARα (Homo sapiens, UniProt Q07869); assay: Determination of hPPARα activity (GAL4-LBD luciferase reporter in HEK-293 cells); format: cell-based; details: compound concentration 50 μM
T1 construct: expressed in transfected cells; host or cells: HEK-293
T1 sequence (Q07869 239-466 limits assumed): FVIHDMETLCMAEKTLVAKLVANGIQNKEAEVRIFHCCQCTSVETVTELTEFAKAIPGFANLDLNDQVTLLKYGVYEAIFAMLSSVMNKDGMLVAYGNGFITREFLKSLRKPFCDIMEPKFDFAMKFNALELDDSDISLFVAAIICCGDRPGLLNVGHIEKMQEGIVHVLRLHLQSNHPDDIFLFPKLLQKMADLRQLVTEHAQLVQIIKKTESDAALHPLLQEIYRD
Experimental: Ligand binding domain of hPPARα was fused to DNA binding domain of Yeast transcription factor Gal 4 in eucaryotic expression vector. Using superfect (Qiagen, Germany) as transfecting reagent HEK-293 cells are transfected with this plasmid and a reporter plasmid harboring the luciferase gene driven by a GAL4 specific promoter. Compound can be added at different concentrations after 42 hrs of transfection and incubated overnight. Luciferase activity as a function of compound binding/activation capacity of PPARα will be measured using Packard Luclite kit (Packard, USA) in Top Count (Ivan Sadowski, Brendan Bell, Peter Broag and Melvyn Hollis. Gene. 1992. 118: 137-141; Superfect Transfection Reagent Handbook. February 1997. Qiagen, Germany).

C57BL/Ks-db/db mice = assay: Efficacy in genetic models: triglyceride lowering in db/db mice; format: in vivo, mouse; details: dose 1 mg/kg, oral gavage daily for 6 days, plasma
Source text: Mutation in colonies of laboratory animals and different sensitivities to dietary regimens has made the development of animal models with non-insulin dependent diabetes and hyperlipidemia associated with obesity and insulin resistance possible. Genetic models such as db/db and ob/ob (Diabetes, (1982) 31(1): 1-6) mice and zucker fa/fa rats have been developed by the various laboratories for understanding the pathophysiology of disease and testing the efficacy of new antidiabetic compounds (Diabetes, (1983) 32: 830-838; Annu. Rep. Sankyo Res. Lab. (1994). 46: 1-57). […]
The random blood sugar and triglyceride levels can be measured by collecting blood (100 μl) through orbital sinus, using heparinised capillary in tubes containing EDTA which was centrifuged to obtain plasma. The plasma glucose and triglyceride levels can be measured spectrometrically, by glucose oxidase and glycerol-3-PO4 oxidase/peroxidase enzyme (Dr. Reddy's Lab. Diagnostic Division Kits, Hyderabad, India) methods respectively.
The blood sugar and triglycerides lowering activities of the test compound are calculated according to the formula.
as §2

[2] = tested on: hypercholesterolemic Sprague Dawley rats; assay: Plasma triglyceride and cholesterol lowering activity in hypercholesterolemic rat models; format: in vivo; details: dose 1 mg/kg, oral, 3 days
Experimental: Male Sprague Dawley rats (NIN stock) were bred in DRF animal house. Animals were maintained under 12 hour light and dark cycle at 25±1° C. Rats of 180-200 gram body weight range were used for the experiment. Animals are made hypercholesterolemic by feeding 2% cholesterol and 1% sodium cholate mixed with standard laboratory chow [National Institute of Nutrition (NE), Hyderabad, India] for 6 days. Throughout the experimental period the animals were maintained on the same diet (Petit, D., Bonnefis, M. T., Rey, C and Infante, P Effects of ciprofibrate on liver lipids and lipoprotein synthesis in normo- and hyperlipidemic rats. Atherosclerosis. 1988. 74: 215-225).
The test compounds can be administered orally at a dose 0.1 to 30 mg/kg/day for 3 days. Control group was treated with vehicle alone (0.25% Carboxymethylcellulose; dose 10 ml/kg).
The blood samples can be collected in fed state 1 hour after drug administration on 0 and 3 day of compound treatment The blood can be collected from the retro-orbital sinus through heparinised capillary in EDTA containing tubes. After centrifugation, plasma sample will be separated for total cholesterol, HDL and triglyceride estimations. Measurement of plasma triglyceride, total cholesterol and HDL are were done using commercial kits (Dr. Reddy's Laboratory, Diagnostic Division, India). LDL and VLDL cholesterol can be calculated from the data obtained for total cholesterol, HDL and triglyceride. The reduction of various parameters examined are calculated according to the formula.
as §1

hPPARγ1 = target: T2, hPPARγ1 (Homo sapiens, UniProt P37231); assay: Determination of hPPARγ activity (GAL4-LBD luciferase reporter in HEK-293 cells); format: cell-based; details: compound concentration 1 μM
T2 construct: expressed in transfected cells; host or cells: HEK-293
T2 sequence (P37231 238-503 limits assumed): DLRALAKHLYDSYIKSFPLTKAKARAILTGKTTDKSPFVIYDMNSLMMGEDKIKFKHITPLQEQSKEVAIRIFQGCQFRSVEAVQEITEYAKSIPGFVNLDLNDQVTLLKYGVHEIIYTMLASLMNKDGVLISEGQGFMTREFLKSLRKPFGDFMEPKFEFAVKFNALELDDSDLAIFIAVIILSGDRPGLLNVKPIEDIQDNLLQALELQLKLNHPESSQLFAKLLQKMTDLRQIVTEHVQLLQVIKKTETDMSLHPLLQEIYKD
Experimental: Ligand binding domain of hPPARγ1 is fused to DNA binding domain of Yeast transcription factor GAL4 in eucaryotic expression vector. Using lipofectamine (Gibco BRL, USA) as transfecting reagent HEK-293 cells are transfected with this plasmid and a reporter plasmid harboring the luciferase gene driven by a GAL4 specific promoter. Compound can be added at 1 μM. concentration after 48 hrs of transfection and incubated overnight Luciferase activity as a function of drug binding/activation capacity of PPARγ1 will be measured using Packard Luclite kit (Packard, USA) in Packard Top Count (Ivan Sadowski, Brendan Bell, Peter Broag and Melvyn Hollis. Gene. 1992. 118:137-141; Guide to Eukaryotic Transfections with Cationic Lipid Reagents. Life Technologies, GIBCO BRL, USA).

| melting point | SMILES | other results |
| --- | --- | --- |
| 136 to 140 °C | C/C(=C\COc1ccc(OC(C(=O)O)C(C)C)cc1)c1ccc(-c2ccccc2)cc1 (centres unmarked) [Example 44] | – |
| 142 to 146 °C | C/C(=C\COc1ccc(SC(C)(C)C(=O)O)cc1)c1ccc(-c2ccc(C(F)(F)F)cc2)cc1 [Example 42] | – |
| 162 to 165 °C | C/C(=C\COc1ccc(SC(C)(C)C(=O)O)cc1)c1ccc(-c2ccccc2)cc1 [Example 41] | – |
| 155 to 158 °C | CCOC(=O)C(C)(C)Oc1ccc(OC/C=C(\C)c2ccc3c(c2)Cc2ccccc2-3)cc1 [Example 7] | – |
| 64 to 66 °C | CC(C)(Oc1ccc(OCCCc2ccc(OS(C)(=O)=O)cc2)cc1)C(=O)O [Example 48] | – |
| 52 to 54 °C | C/C(=C\COc1ccc(OC(C)(C)C(=O)O)cc1)c1ccc(-c2cc(Cl)cc(Cl)c2)cc1 [Example 38] | – |
| 112 to 114 °C | CC(C)(Oc1ccc(OC/C=C/c2ccc(OS(C)(=O)=O)cc2)cc1)C(=O)O [Example 45] | – |
| 122 to 125 °C | CCC(C)(Oc1ccc(OC/C=C(\C)c2ccc(-c3ccc(F)cc3)cc2)cc1)C(=O)O (centres unmarked) [Example 36] | – |
| 112 to 114 °C | CCOC(=O)C1(Oc2ccc(OC/C=C(\C)c3ccc(-c4ccccc4)cc3)cc2)CCCC1 [Example 23] | – |
| – | C/C(=C\COc1ccc(OC(C)(C)C(=O)O)cc1)c1ccc(-c2ccccc2)cc1 [Example 25, 2-[4-(3-Biphenyl-4-yl-but-2-enyloxy)phenoxy]-2-methyl propanoic acid] | Reduction in Body weight (%) [1]: 22%; Reduction in Total Cholesterol (%) [1]: 55%; Reduction in Triglyceride (%) [1]: 45% |
| 155 to 158 °C | C/C(=C\COc1ccc(OC(C)(C)C(=O)O)cc1)c1ccc2c(c1)Cc1ccccc1-2 [Example 31] | – |
| 138 to 140 °C | CC(C)(Oc1ccc(OCCc2ccc(-c3ccccc3)cc2)cc1)C(=O)O [Example 30] | – |
| 114 to 116 °C | CCN1c2ccccc2Oc2ccc(/C(C)=C/COc3ccc(OC(C)(C)C(=O)O)cc3)cc21 [Example 32] | – |
| 114 to 117 °C | CCC(C)(Oc1ccc(OC/C=C(\C)c2ccc(-c3ccccc3)cc2)cc1)C(=O)O (centres unmarked) [Example 37] | Triglyceride Lowering (%) (Swiss albino mice): 71%; PPARα (hPPARα): 12.2; Triglyceride Lowering (%) (C57BL/Ks-db/db mice): 52%; Reduction in Low Density Lipoprotien (%) ([2]; LDL calculated from total cholesterol, HDL and triglyceride): 64%; Increase in High Density Lipoprotien (%) ([2]; plasma): 70%; Reduction in Total Cholesterol (%) ([2]; plasma): 60%; Triglyceride Lowering (%) ([2]; plasma): 55%; PPARγ (hPPARγ1): 2.8 |
| 120 to 122 °C | CC(CCOc1ccc(OC(C)(C)C(=O)O)cc1)c1ccc(-c2ccccc2)cc1 (centres unmarked) [Example 49] | – |
| 150 to 154 °C | C/C(=C\COc1ccc(OC(C)(C)C(=O)O)cc1)c1ccc(-c2ccc(C(F)(F)F)cc2)cc1 [Example 40] | PPARα (hPPARα): 12.6; PPARγ (hPPARγ1): 1.3 |
| 142 to 144 °C | C/C(=C\COc1ccc(OC2(C(=O)O)CCCC2)cc1)c1ccc(-c2ccccc2)cc1 [Example 47] | – |
| 115 to 118 °C | CC(C)C(Sc1ccc(OCCCc2ccc(OS(C)(=O)=O)cc2)cc1)C(=O)O (centres unmarked) [Example 28] | – |
| 172 to 174 °C | CC(C)(Oc1ccc(OC/C=C/c2ccc(-c3ccccc3)cc2)cc1)C(=O)O [Example 43] | – |
| 184 to 188 °C | C/C(=C\CNc1ccc(OC(C)(C)C(=O)O)cc1)c1ccc(-c2ccccc2)cc1 [Example 35] | – |
